The values below come from US20230038929A1, “Fused Tricyclic Heterocyclic Compounds and Uses Thereof” (Verge Analytics, Inc., priority 2019, published 2023).

What is called IC50 is the concentration that inhibits the measured activity by half.

Where a name gives a salt, the structure may show the parent alone.

T1 sequence (Q9Y2I7 whole entry S696N/L932S/Q995L/T998S/S1033A/Q1183K): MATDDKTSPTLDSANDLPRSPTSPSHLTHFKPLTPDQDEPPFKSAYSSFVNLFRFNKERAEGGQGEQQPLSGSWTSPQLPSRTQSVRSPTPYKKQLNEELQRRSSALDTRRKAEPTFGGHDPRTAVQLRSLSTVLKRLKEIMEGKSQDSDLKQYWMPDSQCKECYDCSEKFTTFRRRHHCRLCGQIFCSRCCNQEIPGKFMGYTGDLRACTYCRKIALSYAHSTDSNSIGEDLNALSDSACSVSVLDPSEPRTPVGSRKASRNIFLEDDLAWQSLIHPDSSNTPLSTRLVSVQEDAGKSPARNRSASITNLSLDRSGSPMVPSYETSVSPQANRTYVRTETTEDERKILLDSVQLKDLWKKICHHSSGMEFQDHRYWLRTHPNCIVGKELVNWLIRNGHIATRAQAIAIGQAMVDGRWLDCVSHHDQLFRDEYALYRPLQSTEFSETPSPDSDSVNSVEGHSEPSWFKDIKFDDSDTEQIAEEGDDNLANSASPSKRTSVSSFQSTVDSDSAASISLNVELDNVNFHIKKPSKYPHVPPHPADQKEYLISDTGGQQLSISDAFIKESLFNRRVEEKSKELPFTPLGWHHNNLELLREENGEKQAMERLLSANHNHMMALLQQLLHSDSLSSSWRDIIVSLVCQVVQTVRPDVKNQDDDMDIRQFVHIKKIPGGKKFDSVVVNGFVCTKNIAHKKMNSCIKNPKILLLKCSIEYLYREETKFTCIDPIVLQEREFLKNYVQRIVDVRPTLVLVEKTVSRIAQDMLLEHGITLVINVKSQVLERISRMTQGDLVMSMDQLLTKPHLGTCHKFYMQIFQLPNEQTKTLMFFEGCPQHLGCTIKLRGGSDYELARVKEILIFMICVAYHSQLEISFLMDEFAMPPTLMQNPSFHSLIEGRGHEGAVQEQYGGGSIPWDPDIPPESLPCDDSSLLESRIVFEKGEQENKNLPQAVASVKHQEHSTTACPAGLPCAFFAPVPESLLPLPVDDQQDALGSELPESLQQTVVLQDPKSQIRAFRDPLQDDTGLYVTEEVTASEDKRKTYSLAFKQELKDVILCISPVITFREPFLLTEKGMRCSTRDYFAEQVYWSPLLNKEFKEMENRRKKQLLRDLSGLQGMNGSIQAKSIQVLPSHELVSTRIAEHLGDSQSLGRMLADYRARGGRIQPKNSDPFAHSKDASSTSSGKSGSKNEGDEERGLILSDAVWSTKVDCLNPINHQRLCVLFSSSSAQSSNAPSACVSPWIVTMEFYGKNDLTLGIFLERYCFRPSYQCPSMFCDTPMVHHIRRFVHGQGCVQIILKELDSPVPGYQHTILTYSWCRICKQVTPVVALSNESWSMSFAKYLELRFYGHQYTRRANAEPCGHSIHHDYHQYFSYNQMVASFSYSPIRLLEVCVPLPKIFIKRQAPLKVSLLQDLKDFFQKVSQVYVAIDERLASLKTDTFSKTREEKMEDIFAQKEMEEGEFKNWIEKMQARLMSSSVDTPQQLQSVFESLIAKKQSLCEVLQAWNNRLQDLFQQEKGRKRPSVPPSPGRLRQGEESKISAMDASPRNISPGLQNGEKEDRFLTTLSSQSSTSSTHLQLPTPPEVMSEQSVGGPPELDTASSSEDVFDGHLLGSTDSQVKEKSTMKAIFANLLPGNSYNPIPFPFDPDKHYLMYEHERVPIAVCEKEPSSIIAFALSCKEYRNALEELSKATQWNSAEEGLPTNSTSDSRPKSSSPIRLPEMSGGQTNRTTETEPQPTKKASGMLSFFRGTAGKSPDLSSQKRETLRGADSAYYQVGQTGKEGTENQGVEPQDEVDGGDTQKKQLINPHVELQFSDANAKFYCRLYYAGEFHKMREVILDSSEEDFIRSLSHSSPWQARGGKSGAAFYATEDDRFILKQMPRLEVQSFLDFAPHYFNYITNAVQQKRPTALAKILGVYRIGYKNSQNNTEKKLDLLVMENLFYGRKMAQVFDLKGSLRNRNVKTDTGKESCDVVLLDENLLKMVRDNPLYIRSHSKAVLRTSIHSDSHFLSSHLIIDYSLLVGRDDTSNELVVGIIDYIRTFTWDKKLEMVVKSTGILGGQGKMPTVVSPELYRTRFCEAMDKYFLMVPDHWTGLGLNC

The assay concerns the target T1, Full length human recombinant PIKFYVE (Homo sapiens, UniProt Q9Y2I7, L932S/Q1183K/Q995L/S1033A/S696N/T998S).
T1 construct: Full length human recombinant PIKFYVE; purchased Carna Biosciences (Kobe, Japan); host or cells: baculovirus expression system (insect cells)
As to the kind of experiment: Inhibition of PIKfyve (microfluidic electrophoresis kinase assay). The assay is classed as biochemical. Conditions: 2 nM enzyme, 1 μM PI3P, 3 h at room temperature, 12 concentrations; read-out: PIKfyve IC50. The method, then: Biological Example 1: Inhibition of PIKfyve
Full length human recombinant PIKFYVE expressed in baculovirus expression system as N-terminal GST-fusion protein (265 kDa) was obtained from Carna Biosciences (Kobe, Japan). The kinase substrate was prepared by mixing and sonicating fluorescently-labeled phosphatidylinositol 3-phosphate (PI3P) with phospho-L-serine (PS) at a 1:10 ratio in 50 mM HEPES buffer pH7.5.
The kinase reactions were assembled in 384-well plates (Greiner) in a total volume of […] as follows. Kinase protein was pre-diluted in an assay buffer comprising 25 mM HEPES, pH 7.5, 1 mM DTT, 2.5 mM MgCl2, and 2.5 mM MnCl2, and 0.005% Triton X-100, and dispensed into a 384-well plate (10 μL per well). Test compounds were serially pre-diluted in DMSO and added to the protein samples by acoustic dispensing (Labcyte Echo). The concentration of DMSO was equalized to 1% in all samples. All test compounds were tested at 12 concentrations. Apilimod was used as a reference compound and was tested in identical manner in each assay plate. Control samples (0%-inhibition, in the absence of inhibitor, DMSO only) and 100%-inhibition (in the absence of enzyme) were assembled in replicates of four and were used to calculate %-inhibition in the presence of compounds. The reactions were initiated by addition of 10 μL of 2× PI3P/PS substrate supplemented with ATP. The final concentration of enzyme was 2 nM, the final concentration of ATP was […], and the final concentration of PI3P/PS substrate was 1 μM (PI3P). The kinase reactions were allowed to proceed for 3 h at room temperature. Following incubation, the reactions were quenched by addition of […] of termination buffer (100 mM HEPES, pH 7.5, 0.01% Triton X-100, 20 mM EDTA). Terminated plates were analyzed on a microfluidic electrophoresis instrument (Caliper LabChip® 3000, Caliper Life Sciences/Perkin Elmer). The change in the relative fluorescence intensity of the PI(3)P substrate and PI(3,5)P product peaks was measured. The activity in each test sample was determined as the product to sum ratio (PSR): P/(S+P), where P is the peak height of the product, and S is the peak height of the substrate. Percent inhibition (Pinh) was determined using the following equation:
Pinh=(PSR0%inh−PSRcompound)/(PSR0%inh−P100%inh)*100
in which PSRcompound is the product/sum ratio in the presence of compound, PSR0%inh is the product/sum ratio in the absence of compound, and the PSR100%inh is the product/sum ratio in the absence of the enzyme. To determine the ICso of test compounds (50%-inhibition) the %-inh cdata (Pinh versus compound concentration) were fitted by a four-parameter sigmoid dose-response model using XLfit software (IDBS).
For the molecule `COc1ccc2c(n1)oc1c(N3CCOCC3)nc(Nc3cc(-c4ccccc4)n[nH]3)nc12` [Example 30, 7-methoxy-4-morpholino-N-(3-phenyl-1H-pyrazol-5-yl)pyrido[3′,2′:4,5]furo[3,2-d]pyrimidin-2-amine hydrochloride], the 50% inhibitory concentration (IC50) was 163 nM.

Consider `c1ccc(-c2cc(Nc3nc(N4CCOCC4)c4oc5nc(OCCCN6CCOCC6)ccc5c4n3)[nH]n2)cc1` [Example 25, 4-morpholino-7-(3-morpholinopropoxy)-N-(3-phenyl-1H-pyrazol-5-yl)pyrido[3′,2′:4,5]furo[3,2-d]pyrimidin-2-amine hydrochloride], for which the IC50 stood at 14 nM.

With `c1cnc(Nc2nc(N3CCOCC3)c3oc4ncccc4c3n2)nc1` [Example 42, 4-morpholino-N-(pyrimidin-2-yl)pyrido[3′,2′:4,5]furo[3,2-d]pyrimidin-2-amine], the 50% inhibitory concentration (IC50) is above 10000 nM.

`c1ccc(-c2cc(Nc3nc(N4CCOCC4)c4oc5nc(OCCN6CCCC6)ccc5c4n3)[nH]n2)cc1` [Example 26, 4-morpholino-N-(3-phenyl-1H-pyrazol-5-yl)-7-(2-(pyrrolidin-1-yl)ethoxy)pyrido[3′,2′:4,5]furo[3,2-d]pyrimidin-2-amine hydrochloride]: the IC50 amounted to 82 nM.

For the molecule `Brc1cnc2oc3c(N4CCOCC4)nc(Nc4cc(-c5ccccc5)[nH]n4)nc3c2c1` [Example 51, 8-bromo-4-morpholino-N-(5-phenyl-1H-pyrazol-3-yl)pyrido[3′,2′:4,5]furo[3,2-d]pyrimidin-2-amine], the IC50 came out at 862 nM.

`Cc1ccc(-c2cc(Nc3nc(N4CCOCC4)c4oc5ncccc5c4n3)[nH]n2)cc1` [Example 50, 4-morpholino-N-(3-(p-tolyl)-1H-pyrazol-5-yl)pyrido[3′,2′:4,5]furo[3,2-d]pyrimidin-2-amine]: the IC50 was found to be 398 nM.

As to `Cc1cncc(-c2cc(Nc3nc(N4CCOCC4)c4oc5ncccc5c4n3)[nH]n2)c1` [Example 32, N-(3-(5-methylpyridin-3-yl)-1H-pyrazol-5-yl)-4-morpholinopyrido[3′,2′:4,5]furo[3,2-d]pyrimidin-2-amine hydrochloride], the IC50 amounted to 825 nM.

For the molecule `COc1cccc(-c2cc(Nc3nc(N4CCOCC4)c4oc5ncccc5c4n3)[nH]n2)c1` [Example 34, N-(3-(3-methoxyphenyl)-1H-pyrazol-5-yl)-4-morpholinopyrido[3′,2′:4,5]furo[3,2-d]pyrimidin-2-amine hydrochloride], the IC50 amounted to 303 nM.

As for `c1ccc(-c2cc(Nc3nc(N4CCOCC4)c4oc5nc(OCCCN6CCCC6)ccc5c4n3)[nH]n2)cc1` [Example 27, 4-morpholino-N-(3-phenyl-1H-pyrazol-5-yl)-7-(3-(pyrrolidin-1-yl)propoxy)pyrido[3′,2′:4,5]furo[3,2-d]pyrimidin-2-amine hydrochloride], the half-maximal inhibitory concentration (IC50) is 16 nM.

For the molecule `Cc1ccnc(-c2cc(Nc3nc(N4CCOCC4)c4oc5ncccc5c4n3)[nH]n2)c1` [Example 7, N-(3-(4-Methylpyridin-2-yl)-1H-pyrazol-5-yl)-4-morpholinopyrido[3′,2′:4,5]furo[3,2-d]pyrimidin-2-amine hydrochloride], the IC50 amounted to 573 nM.

`CCc1cc(Nc2nc(N3CCOCC3)c3oc4ncccc4c3n2)[nH]n1` [Example 62, N-(3-ethyl-1H-pyrazol-5-yl)-4-morpholinopyrido[3′,2′:4,5]furo[3,2-d]pyrimidin-2-amine hydrochloride]: the half-maximal inhibitory concentration (IC50) was 7850 nM.

On to `FC(F)(F)Oc1cccc(-c2cc(Nc3nc(N4CCOCC4)c4oc5ncccc5c4n3)[nH]n2)c1` [Example 35, 4-morpholino-N-(3-(3-(trifluoromethoxy)phenyl)-1H-pyrazol-5-yl)pyrido[3′,2′:4,5]furo[3,2-d]pyrimidin-2-amine hydrochloride], for which the half-inhibitory concentration (IC50) is 1540 nM.

For the molecule `Oc1ccc2c(n1)oc1c(N3CCOCC3)nc(Nc3cc(-c4ccccc4)n[nH]3)nc12` [Example 5, 4-Morpholino-2-((3-phenyl-1H-pyrazol-5-yl)amino)pyrido[3′,2′:4,5]furo[3,2-d]pyrimidin-7-ol hydrochloride], the half-inhibitory concentration (IC50) was determined as 17 nM.

As to `c1csc(-c2cc(Nc3nc(N4CCOCC4)c4oc5ncccc5c4n3)[nH]n2)c1` [Example 60, 4-morpholino-N-(3-(thiophen-2-yl)-1H-pyrazol-5-yl)pyrido[3′,2′:4,5]furo[3,2-d]pyrimidin-2-amine hydrochloride], the half-maximal inhibitory concentration (IC50) was determined as 37 nM.

For the molecule `Fc1ccc(-c2cc(Nc3nc(N4CCOCC4)c4oc5ncccc5c4n3)[nH]n2)cc1F` [Example 19, N-(3-(3,4-difluorophenyl)-1H-pyrazol-5-yl)-4-morpholinopyrido[3′,2′:4,5]furo[3,2-d]pyrimidin-2-amine hydrochloride], the IC50 turned out to be 2180 nM.

Consider `c1ccc(Cc2cc(Nc3nc(N4CCOCC4)c4oc5ncccc5c4n3)[nH]n2)cc1` [Example 58, N-(3-benzyl-1H-pyrazol-5-yl)-4-morpholinopyrido[3′,2′:4,5]furo[3,2-d]pyrimidin-2-amine hydrochloride], for which the half-inhibitory concentration (IC50) was 831 nM.

In the case of `FC(F)(F)c1cccc(-c2cc(Nc3nc(N4CCOCC4)c4oc5ncccc5c4n3)[nH]n2)c1` [Example 18, 4-morpholino-N-(3-(3-(trifluoromethyl)phenyl)-1H-pyrazol-5-yl)pyrido[3′,2′:4,5]furo[3,2-d]pyrimidin-2-amine hydrochloride], the IC50 turned out to be 1630 nM.

Turning to `CN1CCN(CCOc2ccc3c(n2)oc2c(N4CCOCC4)nc(Nc4cc(-c5ccccc5)n[nH]4)nc23)CC1` [Example 28, 7-(2-(4-methylpiperazin-1-yl)ethoxy)-4-morpholino-N-(3-phenyl-1H-pyrazol-5-yl)pyrido[3′,2′:4,5]furo[3,2-d]pyrimidin-2-amine hydrochloride], the IC50 stood at 46 nM.

With `c1ccc(-c2c[nH]c(Nc3nc(N4CCOCC4)c4oc5ncccc5c4n3)n2)cc1` [Example 20, 4-morpholino-N-(4-phenyl-1H-imidazol-2-yl)pyrido[3′,2′:4,5]furo[3,2-d]pyrimidin-2-amine hydrochloride], the 50% inhibitory concentration (IC50) came out at 4750 nM.

As to `c1ccc(-c2cc(Nc3nc(N4CCOCC4)c4oc5nc(OCCN6CCOCC6)ccc5c4n3)[nH]n2)cc1` [Example 24, 4-morpholino-7-(2-morpholinoethoxy)-N-(3-phenyl-1H-pyrazol-5-yl)pyrido[3′,2′:4,5]furo[3,2-d]pyrimidin-2-amine hydrochloride], the IC50 worked out at 61 nM.

With `CN(C)CCCOc1ccc2c(n1)oc1c(N3CCOCC3)nc(Nc3cc(-c4ccccc4)n[nH]3)nc12` [Example 23, 7-(3-(dimethylamino)propoxy)-4-morpholino-N-(3-phenyl-1H-pyrazol-5-yl)pyrido[3′,2′:4,5]furo[3,2-d]pyrimidin-2-amine hydrochloride], the IC50 came out at 20 nM.

Turning to `c1cnc2oc3c(N4CCOCC4)ncnc3c2c1` [Example 52, 4-Morpholinopyrido[3′,2′:4,5]furo[3,2-d]pyrimidine], the IC50 was above 10000 nM.

Consider `Clc1cccc(-c2cc(Nc3nc(N4CCOCC4)c4oc5ncccc5c4n3)[nH]n2)c1` [Example 17, N-(3-(3-chlorophenyl)-1H-pyrazol-5-yl)-4-morpholinopyrido[3′,2′:4,5]furo[3,2-d]pyrimidin-2-amine hydrochloride], for which the IC50 amounted to 129 nM.

On to `Cc1ccccc1-c1cc(Nc2nc(N3CCOCC3)c3oc4ncccc4c3n2)[nH]n1` [Example 48, 4-morpholino-N-(3-(o-tolyl)-1H-pyrazol-5-yl)pyrido[3′,2′:4,5]furo[3,2-d]pyrimidin-2-amine], for which the IC50 is 515 nM.

`c1cnc2oc3c(N4CCOCC4)nc(Nc4cc(C5CC5)n[nH]4)nc3c2c1` [Example 53, N-(3-cyclopropyl-1H-pyrazol-5-yl)-4-morpholinopyrido[3′,2′:4,5]furo[3,2-d]pyrimidin-2-amine hydrochloride]: the IC50 amounted to 2090 nM.

Take `Fc1ccc(-c2cc(Nc3nc(N4CCOCC4)c4oc5ncccc5c4n3)[nH]n2)cc1` [Example 1, N-(3-(4-Fluorophenyl)-1H-pyrazol-5-yl)-4-morpholinopyrido[3′,2′:4,5]furo[3,2-d]pyrimidin-2-amine hydrochloride]: the IC50 came to 473 nM.
